Measured values as given in patent publication US20040038904A1, “Method of treating multiple sclerosis” (priority 2002, published 2004).

Test system: progressive multiple sclerosis
Experiment: Monitoring of progress of treatment (clinical condition) in patient with progressive multiple sclerosis
Type: in vivo, human
Conditions: epirubicin 75-100 mg iv with dexrazoxane, 12-week cycle, first and second treatment cycles
Excerpt: Anthracyclines of the present invention can be administered in cycles over 7-week to 15-week intervals. Generally, treatment with anthracyclines is started with a 12-week cycle and the patient is monitored for progress of the treatment during the course of treatment. If the condition of the patient deteriorates between week 8 and 12 of the cycle, the treatment cycle should be shortened to, for example, 9 weeks or shorter.
A patient is diagnosed with progressive multiple sclerosis. Anthracycline therapy with epirubicin 75 mg by intravenous injection is initiated on a 12-week cycle. Prior to the administration of the anthracycline, the patient is pretreated with dexrazoxane at 750 mg by intravenous injection. The patient is monitored for progress of treatment and hematologic and non-hematologic toxicity throughout the course of treatment.

## COc1cccc2c1C(=O)c1c(O)c3c(c(O)c1C2=O)C[C@@](O)(C(=O)CO)C[C@@H]3O[C@H]1C[C@H](N)[C@@H](O)[C@H](C)O1 [epirubicin]
  patient's clinical condition during treatment cycle: deteriorates between weeks 9 and 12
